Source: patent US20190167814A1, “Treatment And/Or Prevention Of DNA-Triplet Repeat Diseases Or Disorders” (UNIVERSITÉ DE LAUSANNE, priority 2016, published 2019)

How the values were obtained:
GFP(CAG)101 cells [1] = experiment: GFP-based assay for CAG repeat expansions and contractions (flow cytometry of GFP- and GFP+ cells); format: cell-based, human; details: for frequency of GFP+ cells (contractions) induced by Cas9 nickase + gCTG under inhibitor, in words: inhibitor 1 μM, compared to DMSO controls; for Cas9 nickase + gCTG-induced GFP-/GFP+ cells on siRNA knockdown, in words: 20 nM siRNA, compared to control knockdown of vimentin
Protocol: (§1) The GFP(CAG)0 and GFP(CAG)101 cells lines were a kind gift from John H. Wilson^3. The cells tested negative for mycoplasma using the MycoAlert detection kit (Lonza) at the start of our experiments. The GFP(CAG)15, GFP(CAG)18, GFP(CAG)42, GFP(CAG)50, and GFP(CAG)270 were isolated from populations grown for 6 months unperturbed or after transfection with the ZFN. […] The cells were maintained at 37° C. with 5% CO2 in Dulbecco's modified Eagle's medium (DMEM) glutamax, supplemented with 10% Fetal Bovine Serum (FBS), 100 U/mL penicillin (pen), 100 μg/mL streptomycin (strep), 15 μg/mL blasticidine and 150 μg/mL hygromycin. When the cells were destined for flow cytometry, they were kept in DMEM glutamax, with 10% of dialyzed calf serum, along with pen-strep. During the long term culturing, the cells were split 1 to 5 twice a week and the medium was supplemented with blasticidine and hygromycin to ensure continued expression of the TetR and GFP transgenes.
The plasmids used in this study are found in Table 2. cDNA transfections were performed using 6×10^5 cells/well in 12-well plates using a total of 1 μg of DNA and Lipofectamine 2000 (Life Technologies) per well. The culture medium was replaced 6 hours after transfection and 2 μg/mL of dox, diluted in DMSO, was added. Controls without dox were treated with DMSO alone. Forty-eight hours later, the medium was replaced and dox was freshly added. Flow cytometry, protein extraction, and/or DNA extraction were performed after another 48 hours of incubation.
The siRNAs used in this study are found in Table 3. When transfecting with both a cDNA and a siRNA, 8×10^5 cells/well were used along with 1 μg of DNA and 20 nM of siRNAs using Lipofectamine 2000. The medium was replaced 6 hours later and dox was added. Forty-eight hours after the first transfection, we performed a second siRNA transfection with RNAiMax (Life technologies) using half of the cells present and 20 nM of siRNA. We collected the cells to assess knockdown efficiency or GFP fluorescence analysis 48 hours later. When transfecting two siRNAs, we used a final siRNA concentration of 40 nM, where 20 nM of each individual siRNA were used.
(§2) When using small molecule inhibitors (Table 4), the cells were treated as above, except that 2×10^5 fewer cells/well were used. The medium, along with the dox and the inhibitors, were replaced for another 48 hours of treatment. Cell cycle analysis was performed after 96 hours of treatment. Briefly, the cells were fixed with 100% ethanol and treated with RNAseA (50 μg/mL) before adding propidium iodine (50 μg/mL). Flow cytometry analysis was performed as described below.
(§3) In preparation for flow cytometry analysis, cells were re-suspended in phosphate buffered saline (PBS) with 1 mM EDTA to a concentration of about 10^6 cells/mL. For each condition, we measured at least 2×10^5 events using a LSRII from BD. Data analysis was done using Flowing II. FACS was performed using a FACS Aria II (BD) or MoFlo Astrios (Beckman Coulter). For single clone analyses, we re-suspended the cells to a concentration of 2×10^6 cells/mL and sorted the GFP^− and GFP^+ cells. The cells were then expanded in DMEM glutamax supplemented with pen-strep, blasticidine, hygromycin, 5% FBS, and 5% dialyzed calf serum. For DNA isolation, cells were re-suspended to a concentration of 1.4×10^7 cells/mL and we isolated between 4×10^4 and […] from the GFP− and GFP^+ populations. We also isolated cells with GFP intensities between the 25th and 75th percentiles. For viability tests, cells were treated as described above except that 96 hours after the first transfection they were collected in PBS with 1 mM EDTA and 1 μM of TO-PRO-3 was added as a dead cell marker.
To quantify the fold increase in the number of GFP^+ or GFP^− cells, we first established gates that contained the top or bottom 1% of GFP expressing cells in the control treatment, for example the nickase plasmid transfected together with an empty gRNA vector (pPN10). […]

GFP(CAG)101 cells [2] = experiment: Cell viability (TO-PRO-3 dead cell marker, flow cytometry); format: cell-based; details: Cas9 D10A + gCTG transfected cells treated with DMSO or inhibitor (1 μM); three experiments
Protocol: as §3

GFP(CAG)101 cells [3] = experiment: Cell cycle analysis upon inhibitor treatment (propidium iodine, flow cytometry); format: cell-based, human; details: for >2n / >4n / G1 / G2 / S: Cas9 D10A + gCTG cells, DMSO or inhibitor 1 μM, 96 hours, average % of cells, n = 4
Protocol: as §2

PARP1/2 = experiment: PAR levels after Zeocin treatment (western blot); format: cell-based, human; details: 100 μg/ml Zeocin, 30 minutes and 24 hours
Excerpt: Dashed line: dimmest (GFP^−) or brightest (GFP^+) 1% of the cells transfected with the Cas9 nickase vector; the empty gRNA plasmid; and the indicated siRNAs. Right: western blot showing knockdown efficiency by siRNA against XRCC1. B) Left: same as A, but cells treated with the PARP inhibitor Oliparib (n=4, P=0.5 for GFP^− cells and P=0.4 for GFP^+ compared to DMSO treated-cells, using a Wilcoxon U-test). Dashed line: dimmest (GFP^−) or brightest (GFP^+) 1% of the cells transfected with the Cas9 nickase vector together with the empty gRNA plasmid, and treated with either DMSO or Oliparib. Right: PAR levels 30 minutes and 24 hours after treatment with 100 μg/ml of Zeocin. The error bars represent the standard error.
Protein extraction was done using RIPA buffer and proteinase inhibitor cocktail tablets (Roche, Germany) and at least 10 μg of proteins were loaded onto a 6% or 10% Tris/glycine SDS polyacrylamide gels and transferred onto nitrocellulose membranes. The antibodies used in this study are found in Table 6. An Odyssey Infrared Imager (Licor) was used for signal detection.

GFP(CAG)0 cells = experiment: GFP-based reporter assay in isogenic cell line devoid of CAG repeats; design: species or system human; details: GFP(CAG)0, no CAG repeats
Protocol: as §1, with “When the cells were destined for flow cytometry, they were kept in DMEM glutamax, with 10% of dialyzed calf serum, along with pen-strep. During the long term culturing, the cells were split 1 to 5 twice a week and the medium was supplemented with blasticidine and hygromycin to ensure continued expression of the TetR and GFP transgenes.” left out
In preparation for flow cytometry analysis, cells were re-suspended in phosphate buffered saline (PBS) with 1 mM EDTA to a concentration of about 10^6 cells/mL. For each condition, we measured at least 2×10^5 events using a LSRII from BD. […]
To quantify the fold increase in the number of GFP^+ or GFP^− cells, we first established gates that contained the top or bottom 1% of GFP expressing cells in the control treatment, for example the nickase plasmid transfected together with an empty gRNA vector (pPN10). […] Once the GFP gates established, we calculated the percentage of cells from the treated population (e.g., expressing both the Cas9 nickase and the gCTG) falling within these same gates. […]

[4] = inhibitor 1 μM in combination with Cas9-nickase and gCTG, vs nickase + pPN10 + inhibitor

Compound	frequency of GFP+ cells (contractions) induced by Cas9 nickase + gCTG under inhibitor, in words (GFP(CAG)101 cells [1])	Viability % (GFP(CAG)101 cells [2]) [%]	>2n (GFP(CAG)101 cells [3]) [%]	>4n (GFP(CAG)101 cells [3]) [%]	G1 (GFP(CAG)101 cells [3]) [%]	G2 (GFP(CAG)101 cells [3]) [%]	S (GFP(CAG)101 cells [3]) [%]	Cas9 nickase + gCTG-induced GFP-/GFP+ cells on siRNA knockdown, in words (GFP(CAG)101 cells [1])	further results
C[C@@H]1CN(CC(=O)Nc2ccc3c(c2)Cc2cccc(-c4cc(=O)cc(N5CCOCC5)o4)c2S3)C[C@H](C)O1 [KU60019]	nearly two-fold reduction	77.2	7.5	4.9 ± 1	34.9	37.2	15.3	–	–
O=C(c1cc(Cc2n[nH]c(=O)c3ccccc23)ccc1F)N1CCN(C(=O)C2CC2)CC1 [Oliparib]	Neither treatment changed the frequency	75.9	5.0	5.3 ± 1	40.7	30.0	19.0	–	cell cycle effect, in words (GFP(CAG)101 cells [3]): accumulation of G2 cells; PARylation in response to zeocin treatment (PARP1/2): inhibiting PARylation
CS(=O)(=O)c1ccc(-c2cnc(N)c(C(=O)Nc3ccccc3)n2)cc1 [VE-821]	–	–	2.0	10.3 ± 3	41.4	25.4	20.9	–	fold increase in GFP+ cells (GFP(CAG)101 cells [1]; [4]): 5.9 fold; fold increase in GFP- cells (GFP(CAG)101 cells [1]; [4]): 3.1 fold; effect on GFP intensities / GFP expression, in words (GFP(CAG)0 cells): did not affect GFP expression
siMSH2: siRNA targeting MSH2, SEQ ID No. 6 (UCUGCAGAGUGUUGUGCUU; listed as RNA, chemistry not given here)	–	–	–	–	–	–	–	did not consistently reduce	–
siRNA against XRCC1: siRNA targeting XRCC1, SEQ ID No. 8 (CAGUUUGUGAUCACAGCACAGGAAU; listed as RNA, chemistry not given here)	–	–	–	–	–	–	–	did not affect the GFP expression	–
siXPA: siRNA targeting XPA, SEQ ID No. 7 (GCUACUGGAGGCAUGGCUA; listed as RNA, chemistry not given here)	–	–	–	–	–	–	–	did not significantly reduce	–
